Earlier results as cited in US20210260003A9 (AZIENDE CHIMICHE RIUNITE ANGELINI FRANCESCO A.C.R.A.F. …, priority 2017, published 2021).

What was measured:
[1] = orally administered

peak concentration (time) [1] [h] | solubility in water [mg/mL] | Molecule
0.5 to 2 |  | CC(C(=O)O)c1cccc(C(=O)c2ccccc2)c1 (centres unmarked) [ketoprofen]
 | 600 | hydroxypropyl-β-cyclodextrin
